Source: patent US20100004267A1, “LIQUID PREPARATION” (ASUBIO PHARMA CO., LTD., priority 2006, published 2010)
Structures can show the parent of a compound that is named as a salt. One block for each molecule: values may come before it.

How the values were obtained:
[1] = Likelihood of formation of insoluble aggregate with free base among counter ions; assay type: physicochemical; details: estimated from the inventors' examinations
[2] = Examination of antioxidant: storage at 60° C. (Test example 3); assay type: physicochemical
Protocol: In this examination, hydrochloride of the compound of formula (I) was used instead of SUN N8075. Approximately 400 mg of the hydrochloride of compound of formula (I) were precisely weighed and water was added to make the volume precisely 200 mL, which was provided as an original drug aqueous solution.
Approximately 400 mg of each antioxidant shown in Table 3 below were precisely weighed and dissolved by adding 20 mL of water. As to butylhydroxy anisole, 10.7 mg was precisely weighed and dissolved in 100 mL of water.
15 mL of each antioxidant solution was mixed with 15 mL of solution of drug substance to prepare a stock sample (in the sample, the concentration of the hydrochloride compound of formula (I) corresponds to 1 mg/mL and the concentration of antioxidant corresponds to 10 mg/mL).
After dispensing each stock sample into 15 brown glass ampules, the ampules were sealed and stored at 60° C.
As a control sample, 15 mL of solution of drug substance added with 15 mL of water were stored in the same condition.
The remaining three ampules for each sample solution were used for measurement at the start of tests.
Each prepared sample was sampled in time series. 1 mL of sample solution was precisely measured, change in appearance and solution state of the sample were observed, and then added with methanol to make the volume precisely 10 mL. For this solution, residual percentage of the hydrochloride of compound of formula (I) was calculated by HPLC method. Furthermore, the pH value of the sample solution remaining after completion of test was measured.

[3] = Butyl hydroxy anisole, at start
[4] = L-Cysteine HCl monohydrate 10 mg/mL, 1 day
[5] = L-Cysteine HCl monohydrate 10 mg/mL, 7 days
[6] = L-Cysteine HCl monohydrate 10 mg/mL, 21 days
[7] = L-Cysteine HCl monohydrate 10 mg/mL, at start
[8] = Sodium bisulfite 10 mg/mL, 1 day
[9] = Sodium bisulfite 10 mg/mL, 7 days
[10] = Sodium bisulfite 10 mg/mL, 21 days
[11] = Sodium bisulfite 10 mg/mL, at start
[12] = Sodium edetate 10 mg/mL, 7 days
[13] = Sodium edetate 10 mg/mL, 21 days
[14] = Sodium edetate 10 mg/mL, at start
[15] = Sodium pyrosulfite 10 mg/mL, 1 day
[16] = Sodium pyrosulfite 10 mg/mL, 7 days
[17] = Sodium pyrosulfite 10 mg/mL, 21 days
[18] = Sodium pyrosulfite 10 mg/mL, at start
[19] = α-Thioglycerol 10 mg/mL, 7 days
[20] = α-Thioglycerol 10 mg/mL, 21 days
[21] = α-Thioglycerol 10 mg/mL, at start

SMILES: Cc1cc(OC[C@@H](O)CN2CCN(c3ccc(Cc4ccc(F)cc4)cc3)CC2)c(C)c(C)c1N [compound represented by the formula (I), (2S)-1-(4-amino-2,3,5-trimethylphenoxy)-3-{4-[4-(4-fluorobenzyl)phenyl]-1-piperazinyl}-2-propanol]
Order of likelihood of formation of insoluble aggregate with free base among various counter ions [1]: sulfate ion>sulfite (or bisulfite ion)>>phosphate ion (or hydrogen phosphate ion, dihydrogen phosphate ion)>acetate ion>chloride ion>methane sulfonate ion

Appearance ([2]; Butyl hydroxy anisole (10.7 mg in 100 mL stock), at start): colorless and clear
Appearance ([2]; Butyl hydroxy anisole, 1 day): colorless and clear
Purity ([2]; Butyl hydroxy anisole, 1 day): 96.8%
Residual degree ([2]; Butyl hydroxy anisole, 1 day): 99.2%
pH ([2]; Butyl hydroxy anisole, 1 day): 2.8
Appearance ([2]; Butyl hydroxy anisole, 7 days): colorless and clear
Purity ([2]; Butyl hydroxy anisole, 7 days): 80.6%
Residual degree ([2]; Butyl hydroxy anisole, 7 days): 80.3%
pH ([2]; Butyl hydroxy anisole, 7 days): 2.8
Appearance ([2]; Butyl hydroxy anisole, 21 days): Brown precipitates
Purity ([2]; Butyl hydroxy anisole, 21 days): 53.5%
Residual degree ([2]; Butyl hydroxy anisole, 21 days): 41.2%
pH ([2]; Butyl hydroxy anisole, 21 days): 2.8
Purity [2, 3]: 100%
Residual degree [2, 3]: 100%
pH [2, 3]: 2.8
Appearance ([2]; Citric acid 10 mg/mL, 1 day): colorless and clear
Purity ([2]; Citric acid 10 mg/mL, 1 day): 99.2%
Residual degree ([2]; Citric acid 10 mg/mL, 1 day): 98.0%
pH ([2]; Citric acid 10 mg/mL, 1 day): 2.2
Appearance ([2]; Citric acid 10 mg/mL, 7 days): colorless and clear
Purity ([2]; Citric acid 10 mg/mL, 7 days): 88.6%
Residual degree ([2]; Citric acid 10 mg/mL, 7 days): 89.8%
pH ([2]; Citric acid 10 mg/mL, 7 days): 2.2
Appearance ([2]; Citric acid 10 mg/mL, 21 days): colorless and clear
Purity ([2]; Citric acid 10 mg/mL, 21 days): 63.6%
Residual degree ([2]; Citric acid 10 mg/mL, 21 days): 57.3%
pH ([2]; Citric acid 10 mg/mL, 21 days): 2.2
Appearance ([2]; Citric acid 10 mg/mL, at start): colorless and clear
Purity ([2]; Citric acid 10 mg/mL, at start): 100%
Residual degree ([2]; Citric acid 10 mg/mL, at start): 100%
pH ([2]; Citric acid 10 mg/mL, at start): 2.1
Appearance [2, 4]: colorless and clear
Purity [2, 4]: 100%
Residual degree [2, 4]: 97.9%
pH [2, 4]: 1.7
Appearance [2, 5]: colorless and clear
Purity [2, 5]: 99.7%
Residual degree [2, 5]: 100.6%
pH [2, 5]: 1.7
Appearance [2, 6]: colorless and clear
Purity [2, 6]: 99.6%
Residual degree [2, 6]: 94.0%
pH [2, 6]: 1.7
Appearance [2, 7]: colorless and clear
Purity [2, 7]: 100%
Residual degree [2, 7]: 100%
pH [2, 7]: 1.7
Appearance ([2]; No additive, 1 day): colorless and clear
Purity ([2]; No additive, 1 day): 98.4%
Residual degree ([2]; No additive, 1 day): 98.7%
pH ([2]; No additive, 1 day): 2.8
Appearance ([2]; No additive, 7 days): colorless and clear
Purity ([2]; No additive, 7 days): 82.5%
Residual degree ([2]; No additive, 7 days): 84.4%
pH ([2]; No additive, 7 days): 3.0
Appearance ([2]; No additive, 21 days): colorless and clear
Purity ([2]; No additive, 21 days): 51.2%
Residual degree ([2]; No additive, 21 days): 43.1%
pH ([2]; No additive, 21 days): 2.9
Appearance ([2]; No additive, at start): colorless and clear
Purity ([2]; No additive, at start): 100%
Residual degree ([2]; No additive, at start): 100%
pH ([2]; No additive, at start): 2.8
Appearance [2, 8]: colorless and clear
Purity [2, 8]: 98.5%
Residual degree [2, 8]: 99.9%
pH [2, 8]: 3.2
Appearance [2, 9]: colorless and clear
Purity [2, 9]: 98.3%
Residual degree [2, 9]: 97.3%
pH [2, 9]: 2.8
Appearance [2, 10]: colorless and clear
Purity [2, 10]: 98.4%
Residual degree [2, 10]: 91.2%
pH [2, 10]: 2.8
Appearance [2, 11]: colorless and clear
Purity [2, 11]: 97.2%
Residual degree [2, 11]: 100%
pH [2, 11]: 3.5
Appearance ([2]; Sodium edetate 10 mg/mL, 1 day): colorless and clear
Purity ([2]; Sodium edetate 10 mg/mL, 1 day): 97.9%
Residual degree ([2]; Sodium edetate 10 mg/mL, 1 day): 94.1%
pH ([2]; Sodium edetate 10 mg/mL, 1 day): 3.8
Appearance [2, 12]: colorless and clear
Purity [2, 12]: 81.2%
Residual degree [2, 12]: 68.5%
pH [2, 12]: 4.1
Appearance [2, 13]: colorless and clear
Purity [2, 13]: 53.8%
Residual degree [2, 13]: 31.9%
pH [2, 13]: 4.2
Appearance [2, 14]: colorless and clear
Purity [2, 14]: 100%
Residual degree [2, 14]: 100%
pH [2, 14]: 4.0
Appearance [2, 15]: colorless and clear
Purity [2, 15]: 98.2%
Residual degree [2, 15]: 102.4%
pH [2, 15]: 3.1
Appearance [2, 16]: colorless and clear
Purity [2, 16]: 97.3%
Residual degree [2, 16]: 97.2%
pH [2, 16]: 2.9
Appearance [2, 17]: colorless and clear
Purity [2, 17]: 97.6%
Residual degree [2, 17]: 89.8%
pH [2, 17]: 2.7
Appearance [2, 18]: colorless and clear
Purity [2, 18]: 94.4%
Residual degree [2, 18]: 100%
pH [2, 18]: 3.6
Appearance ([2]; α-Thioglycerol 10 mg/mL, 1 day): colorless and clear
Purity ([2]; α-Thioglycerol 10 mg/mL, 1 day): 100%
Residual degree ([2]; α-Thioglycerol 10 mg/mL, 1 day): 97.5%
pH ([2]; α-Thioglycerol 10 mg/mL, 1 day): 2.8
Appearance [2, 19]: colorless and clear
Purity [2, 19]: 99.2%
Residual degree [2, 19]: 97.1%
pH [2, 19]: 2.8
Appearance [2, 20]: colorless and clear
Purity [2, 20]: 96.8%
Residual degree [2, 20]: 89.0%
pH [2, 20]: 2.8
Appearance [2, 21]: colorless and clear
Purity [2, 21]: 100%
Residual degree [2, 21]: 100%
pH [2, 21]: 2.7
SMILES: Cc1cc(OC[C@@H](O)CN2CCN(c3ccc(Cc4ccc(F)cc4)cc3)CC2)c(C)c(C)c1N [hydrochloride of compound of formula (I)]
